Tested on: Lysozyme
Experiment: Test for the inhibitory activity on the formation of AGE (lysozyme dimer formation, SDS gel electrophoresis, densitometry)
Format: biochemical
Conditions: AGE-inhibitory action, lysozyme 20 mg/ml, pH 7.4, 200 mmol/l glucose or xylose, 24 to 120 hours
Procedure: Test for the inhibitory activity on the formation of AGE
Lysozyme is dissolved at a final concentration of 20 mg/ml in 100 mmol/l potassium phosphate buffer, pH 7.4. 5 mmol/l sodium azide is added as a preservative. The formation of AGE is initiated by the addition of 200 mmol/l glucose or xylose. Test substances or the reference substance aminoguanidine are added at different concentrations in order to quantify an inhibitory activity on AGE formation. Solvent controls as well as control mixes are also run in the presence of 200 mmol/l sorbitol or xylite for correction purposes. The incubation period of the reaction mixtures is between 24 and 120 hours depending on the sugar used and is selected in such a way that mainly dimers are formed and other higher molecular oligomerization products are formed only to a slight extent.
The samples are prepared and SDS gel electrophoresis is carried out according to literature references. Summarized briefly the samples are diluted with the 4-fold amount of sample buffer (50 mmol/l Tris^* acetate, pH 7.5, 1% SDS, 5 mmol/l dithiothreitol) and heated for 3 minutes to 95° C. Aliquots are applied to 8-18% gradient-SDS gels. In order to determine the molecular weight molecular weight markers are also used in the range 14-340 kD. The separation according to molecular weight is achieved under the following operating conditions: voltage: 600 V, current intensity: 50 mA, power: 30 W, run period: ~60 minutes.
After the gel electrophoresis the gels are fixed according to standard methods and stained with Coomassie Blue. After destaining overnight and drying, the gels are measured densitometrically (Pharmacia Ultra Scan XL using GelScan XL software).
In order to determine the threshold concentration and the IC50 values of the AGE-inhibitory action of the test substances, the dimer formation is plotted semi-logarithmically against the test concentration of the substance and the above-mentioned parameters are calculated.

SMILES | IC50 [µM] | Threshold concentration [µmol/L]
COc1ccc(C(c2c(O)cc(/C=C/c3ccc(O)c(O)c3)oc2=O)c2c(O)cc(/C=C/c3ccc(O)c(O)c3)oc2=O)cc1OC [Example 6] | 5 | > 1
CC(C)(C)c1cc(C(c2c(O)cc(/C=C/c3ccc(O)c(O)c3)oc2=O)c2c(O)cc(/C=C/c3ccc(O)c(O)c3)oc2=O)cc(C(C)(C)C)c1O [Example 4, 3,3'-(4-Hydroxy-3,5-(bis-1,1-dimethylethyl)benzylidene]bis[6-[2-(3,4-dihydroxyphenyl)vinyl]-4-hydroxy-2H-pyran-2-one]] | 2 | > 1
COc1ccc(C(c2c(O)cc(/C=C/c3ccc(O)c(O)c3)oc2=O)c2c(O)cc(/C=C/c3ccc(O)c(O)c3)oc2=O)cc1O [Example 3, 3,3'-(3-Hydroxy-4-methoxybenzylidene)bis[6-[2-(3,4-dihydroxyphenyl)vinyl]-4-hydroxy-2H-pyran-2-one]] | 2 | > 1
N=C(N)NN [aminoguanidine, reference compound] | 4500 | 500
COc1ccc(C(c2c(O)cc(/C=C/c3ccc(O)c(O)c3)oc2=O)c2c(O)cc(/C=C/c3ccc(O)c(O)c3)oc2=O)cc1 [Example 5] | 2 | > 1
O=c1oc(/C=C/c2ccc(O)c(O)c2)cc(O)c1C(c1ccc(O)c(O)c1)c1c(O)cc(/C=C/c2ccc(O)c(O)c2)oc1=O [Example 7] | 4 | 2
N#Cc1ccc(C(c2c(O)cc(/C=C/c3ccc(O)c(O)c3)oc2=O)c2c(O)cc(/C=C/c3ccc(O)c(O)c3)oc2=O)cc1 [Example 8] | 22 | 10
O=c1oc(/C=C/c2ccc(O)c(O)c2)cc(O)c1C(c1ccc(Cl)cc1)c1c(O)cc(/C=C/c2ccc(O)c(O)c2)oc1=O [Example 1, 3,3'-(4-Chlorobenzylidene)bis[6-[2-(3,4-dihydroxyphenyl)vinyl]-4-hydroxy-2H-pyran-2-one]] | 4 | > 1

From patent US5731344A, “Bishispidine compounds, processes for their production and pharmaceutical agents containing these compounds” (Boehringer Mannheim GmbH, priority 1993, dated 1998)
